Reference: the Biogen ADME set (Fang et al. 2023)
In brackets after ≈: the same amount, converted by molar mass.

Details: for aqueous solubility: pH 6.8

| MDR1-MDCK efflux ratio | fraction unbound, human plasma | fraction unbound, rat plasma | intrinsic clearance, human liver microsomes | intrinsic clearance, rat liver microsomes | aqueous solubility | SMILES |
| --- | --- | --- | --- | --- | --- | --- |
| 33.3 | – | – | 214 mL/min/kg | 808 mL/min/kg | 3.18 µg/mL (≈ 7.47 µM) | Cc1cc(CCCC(=O)NC[C@H]2CC[C@H](c3ccc(C(N)=O)c(C)n3)CC2)ccc1F |
| 1.72 | – | – | 4.99 mL/min/kg | 15.6 mL/min/kg | 46.3 µg/mL (≈ 187 µM) | Cc1cc(C)c(CC(=O)N2CC(CO)C2)c(C)c1 |
| – | – | – | – | – | 0.21 µg/mL (≈ 0.716 µM) | CNC(=O)c1ccc(-c2nnc(-c3cccc(C)c3)o2)cc1 |
| 10.1 | – | – | – | – | – | COc1cc2c(cc1OC)CN(C(=O)C1CCCN(C(=O)c3ccc(Cl)cc3)C1)CC2 (stereo not given) |
| 94.1 | – | – | ≤ 4.74 mL/min/kg | 112 mL/min/kg | – | Cc1cc(CNC(=O)N(C)Cc2c(C)nn(C)c2C)cnc1C |
| – | – | – | 86.8 mL/min/kg | 337 mL/min/kg | – | Cc1noc(C)c1COc1ccc2ncccc2c1 |
| 17.6 | – | – | 6.26 mL/min/kg | 97.3 mL/min/kg | 32.2 µg/mL (≈ 103 µM) | COC(=O)[C@@H]1Cc2ncn(Cc3ccccc3)c2CN1C(C)=O |
| 0.552 | – | – | ≤ 4.74 mL/min/kg | 45.1 mL/min/kg | – | Cc1ccc(CCNc2ccc(C#N)nc2)cn1 |
| 0.969 | – | – | 391 mL/min/kg | 1930 mL/min/kg | 19.1 µg/mL (≈ 45.1 µM) | COc1ccc(NC(=O)C(C)N2CCCN(c3ccc(C(F)(F)F)cn3)CC2)cc1 (stereo not given) |
| 0.928 | – | – | ≤ 4.74 mL/min/kg | 48.3 mL/min/kg | 39 µg/mL (≈ 90.4 µM) | COc1cc(OC)cc(-c2nnc(SCC(=O)Nc3cccc(C(=O)O)c3)s2)c1 |
| 4.9 | – | – | ≤ 4.74 mL/min/kg | 21.1 mL/min/kg | 25.2 µg/mL (≈ 81.2 µM) | c1ccc(COc2ccc(CNCC3CCNCC3)cc2)cc1 |
| 0.574 | – | – | ≤ 4.74 mL/min/kg | 443 mL/min/kg | 40.2 µg/mL (≈ 163 µM) | CCCC(=O)N1CCC(c2cccc(C)n2)CC1 |
| – | – | – | – | – | 31.2 µg/mL (≈ 116 µM) | CC(=O)NCc1ccc(-c2ccccc2C(=O)O)cc1 |
| – | – | – | ≤ 4.74 mL/min/kg | 36.9 mL/min/kg | – | Cc1nc(-c2ccncc2)cc(N2CCC(CO)CC2)n1 |

Continued, compound first:

| SMILES | MDR1-MDCK efflux ratio | fraction unbound, human plasma | fraction unbound, rat plasma | intrinsic clearance, human liver microsomes | intrinsic clearance, rat liver microsomes | aqueous solubility |
| --- | --- | --- | --- | --- | --- | --- |
| c1ccc(Oc2cccc(CN(CCN3CCOCC3)Cc3cccnc3)c2)cc1 | 1.33 | 0.00599 | 0.0139 | 1250 mL/min/kg | 3870 mL/min/kg | 66.7 µg/mL (≈ 165 µM) |
| CN1CCc2ncnc(N3CCCN(c4nccs4)CC3)c2C1 | 4.76 | – | – | 23.3 mL/min/kg | 131 mL/min/kg | 43.2 µg/mL (≈ 131 µM) |
| N#CCn1ncnc1-c1cccc(C#N)c1 | 0.748 | – | – | ≤ 4.74 mL/min/kg | 50.8 mL/min/kg | – |
| Cc1oc2ncnc(NCc3cc(F)cc4c3OCOC4)c2c1C | 0.553 | – | – | 127 mL/min/kg | 2040 mL/min/kg | – |
| COc1ccccc1C(=O)Nc1cccc(C#N)c1 | 0.246 | – | – | 85.5 mL/min/kg | 80.9 mL/min/kg | 33 µg/mL (≈ 131 µM) |
| O=C(CN1CCc2ccccc21)N1CCNC1=O | 0.72 | – | – | ≤ 4.74 mL/min/kg | 16.2 mL/min/kg | 27.5 µg/mL (≈ 112 µM) |
| Nc1cnc(Cc2ccc(F)cc2)nc1 | 0.67 | – | – | ≤ 4.74 mL/min/kg | 15.4 mL/min/kg | 38.2 µg/mL (≈ 188 µM) |
| CCc1cc2c(N3CCN(Cc4nccn4C)CC3)ncnc2s1 | – | – | – | – | – | 66.8 µg/mL (≈ 195 µM) |
| O=C(Nc1ccccc1)c1sc(N2CCOCC2)nc1-c1ccccc1 | 0.494 | – | – | – | – | 0.26 µg/mL (≈ 0.711 µM) |
| CC(=O)N1c2ccccc2C[C@H]1C(=O)O | – | – | – | ≤ 4.74 mL/min/kg | ≤ 10.7 mL/min/kg | 33.6 µg/mL (≈ 164 µM) |
